Measurements as given in ChEMBL document CHEMBL1145278, “Inhibitors of HCV NS5B polymerase. Part 2: Evaluation of the northern region of (2Z)-2-benzoylamino-3-(4-phenoxy-phenyl)-acrylic acid” (Bioorg Med Chem Lett, 2005).

Legend:
[1] = target: RNA-directed RNA polymerase (Hepacivirus hominis) (UniProt O39930); experiment: Effective dose for RNA dependent RNA polymerase Nonstructural protein 5B (HCV NS5B polymerase) in Hepatitis C virus
[2] = target: RNA-directed RNA polymerase (Hepacivirus hominis) (UniProt O39930); experiment: Cytotoxic concentration against RNA dependent RNA polymerase Nonstructural protein 5B (HCV NS5B polymerase) in Hepatitis C virus
[3] = target: RNA-directed RNA polymerase (Hepacivirus hominis, UniProt O39930); experiment: Inhibitory concentration against RNA dependent RNA polymerase Nonstructural protein 5B (HCV NS5B polymerase) in Hepatitis C virus
RNA-directed RNA polymerase, sequence (O39930 whole entry): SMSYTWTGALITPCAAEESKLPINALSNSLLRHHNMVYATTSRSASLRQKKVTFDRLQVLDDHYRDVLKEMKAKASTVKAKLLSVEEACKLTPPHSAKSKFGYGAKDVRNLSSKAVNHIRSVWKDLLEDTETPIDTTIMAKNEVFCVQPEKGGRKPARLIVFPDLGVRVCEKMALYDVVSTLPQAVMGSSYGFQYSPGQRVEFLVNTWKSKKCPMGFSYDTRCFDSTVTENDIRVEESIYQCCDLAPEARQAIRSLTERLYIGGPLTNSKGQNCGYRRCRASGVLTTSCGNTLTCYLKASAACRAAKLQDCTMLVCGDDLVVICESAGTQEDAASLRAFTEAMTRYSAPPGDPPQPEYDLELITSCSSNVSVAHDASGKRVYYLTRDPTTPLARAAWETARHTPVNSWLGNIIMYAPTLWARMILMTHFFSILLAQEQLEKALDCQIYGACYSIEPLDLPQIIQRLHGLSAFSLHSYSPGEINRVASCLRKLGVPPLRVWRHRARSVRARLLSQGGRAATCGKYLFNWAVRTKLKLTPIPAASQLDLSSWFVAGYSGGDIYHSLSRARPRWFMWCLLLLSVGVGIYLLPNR

[4] = target: RNA-directed RNA polymerase (Hepacivirus hominis) (UniProt O39930); experiment: Ratio for cellular to RNA dependent RNA polymerase Nonstructural protein 5B activity in Hepatitis C virus
[5] = Maximum concentration upon oral administration to rat at 5 mg/kg; format: ADME, organism-based; set-up: dose 5 mg/kg, route oral; settings: in vivo
[6] = Clearance measured in Sprague Dawley rat dosed at 5mg/kg; format: ADME, organism-based; settings: in vivo
Rattus norvegicus [7] = experiment: Half life was determined upon oral administration to rat; format: functional, organism-based
Rattus norvegicus [8] = experiment: Oral bioavailability in rat; format: functional, organism-based

RNA-directed RNA polymerase (Hepacivirus hominis), sequence (O39930 1-591): as the sequence (O39930 whole entry) above

Compound	ED50 [1]	IC50 [3]	Ratio [4]	Cmax [5]	clearance [6]	CC50 [2]	T1/2 (Rattus norvegicus [7])	bioavailability (Rattus norvegicus [8])
O=C(Cc1ccc(F)cc1)N/C(=C\c1ccc(Oc2ccccc2Br)cc1)C(=O)O	> 100 µM	2.2 µM	–	–	–	> 100 µM	–	–
CCc1ccccc1Oc1ccc(/C=C(\NC(=O)CCC2CCCC2)C(=O)O)cc1	15 µM	7.1 µM	2	–	–	> 100 µM	–	–
CONC(=O)/C(=C/c1ccc(Oc2ccccc2Br)cc1)NC(=O)c1ccccc1	> 50 µM	0.8 µM	–	–	–	22 µM	–	–
O=C(CCC1CCCC1)N/C(=C\c1ccc(Oc2ccc(F)cc2Br)cc1)C(=O)O	12 µM	15 µM	0.8	–	–	> 100 µM	–	–
O=C(O)/C(=C/c1ccc(Oc2ccccc2Br)cc1)NC(=O)c1ccccc1O	> 100 µM	0.08 µM	–	–	–	> 100 µM	–	–
O=C(Nc1ccc(O)cc1)/C(=C/c1ccc(Oc2ccccc2Br)cc1)NC(=O)c1ccccc1	> 50 µM	12 µM	–	–	–	22 µM	–	–
O=C(CC1CCCC1)N/C(=C\c1ccc(Oc2ccccc2Br)cc1)C(=O)O	> 100 µM	0.85 µM	–	–	–	–	–	–
O=C(NCCO)/C(=C/c1ccc(Oc2ccccc2Br)cc1)NC(=O)c1ccccc1	8 µM	2.7 µM	3	1.5 µM	53.3 mL/min/kg	> 50 µM	1 h	76%
O=C(CCc1ccc(Cl)cc1)N/C(=C\c1ccc(Oc2ccccc2Br)cc1)C(=O)O	> 100 µM	0.5 µM	–	–	–	> 100 µM	–	–
O=C(O)/C(=C/c1ccc(Oc2ccccc2Br)cc1)NC(=O)C1CC2CCC1C2 (stereo unspecified)	> 100 µM	0.1 µM	–	–	–	–	–	–
O=C(O)/C(=C/c1ccc(Oc2c(F)cccc2Br)cc1)NC(=O)c1ccccc1	60 µM	–	–	–	–	–	–	–
O=C(CCc1ccc(C(F)(F)F)cc1)N/C(=C\c1ccc(Oc2ccccc2Br)cc1)C(=O)O	> 100 µM	0.37 µM	–	–	–	> 100 µM	–	–
O=C(Nc1ccccc1C(=O)O)/C(=C/c1ccc(Oc2ccccc2Br)cc1)NC(=O)c1ccccc1	> 50 µM	0.4 µM	–	–	–	> 50 µM	–	–
Cc1ccc(C(=O)N/C(=C\c2ccc(Oc3ccccc3Br)cc2)C(=O)O)cc1	> 100 µM	0.25 µM	–	–	–	> 100 µM	–	–
O=C(Nc1cccc(O)c1)/C(=C/c1ccc(Oc2ccccc2Br)cc1)NC(=O)c1ccccc1	15 µM	1.9 µM	–	–	–	25 µM	–	–
O=C(Cc1ccc(Br)cc1)N/C(=C\c1ccc(Oc2ccccc2Br)cc1)C(=O)O	> 100 µM	0.82 µM	–	–	–	> 100 µM	–	–
O=C(O)/C(=C/c1ccc(Oc2ccccc2Br)cc1)NC(=O)c1ccc(Br)cc1	> 100 µM	0.12 µM	–	–	–	> 100 µM	–	–
O=C(CCC1CCCC1)N/C(=C\c1ccc(Oc2ccccc2Br)cc1)C(=O)O	12 µM	6 µM	2	–	–	> 100 µM	–	–
NC(=O)/C(=C/c1ccc(Oc2ccccc2Br)cc1)NC(=O)c1ccccc1	20 µM	0.5 µM	–	–	–	45 µM	–	–
O=C(Nc1ccccc1)/C(=C/c1ccc(Oc2ccccc2Br)cc1)NC(=O)c1ccccc1	> 50 µM	> 100 µM	–	–	–	> 50 µM	–	–
CCc1ccccc1C(=O)N/C(=C\c1ccc(Oc2ccccc2Br)cc1)C(=O)O	70 µM	0.05 µM	–	–	–	> 100 µM	–	–
O=C(O)/C(=C/c1ccc(Oc2ccccc2I)cc1)NC(=O)C(O)c1ccccc1 (stereo unspecified)	> 100 µM	3.1 µM	–	–	–	–	–	–
O=C(O)/C(=C/c1ccc(Oc2ccccc2Br)cc1)NC(=O)c1ccccc1	28 µM	–	280	9 µM	3.33 mL/min/kg	> 100 µM	1.5 h	21%
O=C(O)/C(=C/c1ccc(Oc2ccccc2Br)cc1)NC(=O)c1ccc(F)c(F)c1	> 100 µM	0.23 µM	–	–	–	> 100 µM	–	–
O=C(O)CCCC(=O)N/C(=C\c1ccc(Oc2ccccc2I)cc1)C(=O)O	> 100 µM	0.83 µM	–	–	–	–	–	–
O=C(O)CNC(=O)/C(=C/c1ccc(Oc2ccccc2Br)cc1)NC(=O)c1ccccc1	> 50 µM	0.06 µM	–	–	–	> 50 µM	–	–
O=C(O)/C(=C/c1ccc(Oc2ccccc2Br)cc1)NC(=O)C1CCCCC1	> 100 µM	0.2 µM	–	–	–	–	–	–
O=C(NCc1ccccc1)/C(=C/c1ccc(Oc2ccccc2Br)cc1)NC(=O)c1ccccc1	> 50 µM	> 100 µM	–	–	–	> 50 µM	–	–

Further lines, with some results ahead:

ED50 [1]	IC50 [3]	Ratio [4]	Cmax [5]	clearance [6]	Compound	CC50 [2]	T1/2 (Rattus norvegicus [7])	bioavailability (Rattus norvegicus [8])
> 100 µM	0.18 µM	–	–	–	O=C(O)/C(=C/c1ccc(Oc2ccccc2Br)cc1)NC(=O)c1ccccc1F	> 100 µM	–	–
> 100 µM	0.94 µM	–	–	–	O=C(Cc1ccc(Cl)cc1)N/C(=C\c1ccc(Oc2ccccc2Br)cc1)C(=O)O	> 100 µM	–	–
15 µM	7 µM	2	–	–	O=C(CCC1CCCC1)N/C(=C\c1ccc(Oc2ccccc2I)cc1)C(=O)O	–	–	–
> 100 µM	2 µM	–	–	–	O=C(CO)N/C(=C\c1ccc(Oc2ccccc2I)cc1)C(=O)O	–	–	–
> 50 µM	1 µM	–	–	–	NNC(=O)/C(=C/c1ccc(Oc2ccccc2Br)cc1)NC(=O)c1ccccc1	> 50 µM	–	–
> 100 µM	13 µM	–	–	–	O=C(CCC1CCCCC1)N/C(=C\c1ccc(Oc2ccccc2Br)cc1)C(=O)O	–	–	–
> 100 µM	0.23 µM	–	–	–	O=C(O)/C(=C/c1ccc(Oc2ccccc2Br)cc1)NC(=O)c1ccc(F)cc1F	> 100 µM	–	–
> 100 µM	1 µM	–	–	–	O=C(Cc1ccc(I)cc1)N/C(=C\c1ccc(Oc2ccccc2Br)cc1)C(=O)O	> 100 µM	–	–
> 100 µM	4.8 µM	–	–	–	CC(O)C(=O)N/C(=C\c1ccc(Oc2ccccc2I)cc1)C(=O)O (stereo unspecified)	–	–	–
> 100 µM	2.6 µM	–	–	–	Cc1ccc(CCC(=O)N/C(=C\c2ccc(Oc3ccccc3Br)cc2)C(=O)O)cc1	> 100 µM	–	–
> 100 µM	2.8 µM	–	–	–	O=C(O)/C(=C/c1ccc(Oc2ccccc2I)cc1)NC(=O)C1CC1	–	–	–
> 100 µM	2.2 µM	–	–	–	O=C(CC1CCCCC1)N/C(=C\c1ccc(Oc2ccccc2Br)cc1)C(=O)O	–	–	–
53 µM	0.09 µM	–	–	–	O=C(O)/C(=C/c1ccc(Oc2ccccc2Br)cc1)NC(=O)c1cccc(F)c1	> 100 µM	–	–
> 100 µM	0.6 µM	–	–	–	O=C(CCc1ccc(F)cc1)N/C(=C\c1ccc(Oc2ccccc2Br)cc1)C(=O)O	> 100 µM	–	–
> 50 µM	15 µM	–	–	–	O=C(Nc1ccccc1O)/C(=C/c1ccc(Oc2ccccc2Br)cc1)NC(=O)c1ccccc1	> 50 µM	–	–
> 100 µM	0.79 µM	–	–	–	O=C(O)CCC(=O)N/C(=C\c1ccc(Oc2ccccc2I)cc1)C(=O)O	–	–	–
> 100 µM	–	–	–	–	O=C(O)/C(=C/c1ccc(Oc2ccccc2Br)cc1)NC(=O)C12CC3CC(CC(C3)C1)C2	–	–	–
5 µM	6.3 µM	0.7	–	–	O=C(CCC1CCCC1)N/C(=C\c1ccc(Oc2ccccc2C(F)(F)F)cc1)C(=O)O	> 100 µM	–	–
> 100 µM	0.11 µM	–	–	–	O=C(O)/C(=C/c1ccc(Oc2ccccc2Br)cc1)NC(=O)c1ccc(Cl)cc1	> 100 µM	–	–
5 µM	14 µM	0.4	–	–	Nc1ccc(Oc2ccc(/C=C(\NC(=O)CCC3CCCC3)C(=O)O)cc2)c(C(F)(F)F)c1	> 50 µM	–	–
> 100 µM	1 µM	–	–	–	O=C(Cc1ccc(C(F)(F)F)cc1)N/C(=C\c1ccc(Oc2ccccc2Br)cc1)C(=O)O	18 µM	–	–
